Experimental findings from EPA's ToxRefDB 2 are described below.

By LOAEL is commonly meant the lowest tested level that showed an adverse finding. The NOAEL is the highest tested level that showed no adverse finding.

In data set [1] the test system is rat. The following applies: Developmental neurotoxicity study; fischer; Injection; Intraperitoneal; dose end: 30 PND; group: cannot be grouped; systemic / in life observation / body weight / offspring (pup) weight.
Data set [2] relates to rat. The following applies: Subchronic oral toxicity in rodents, sprague dawley, Feed, dose end: 13 week, group: systemic.
In data set [3] the test system is mouse. The conditions noted are these: Carcinogenicity, cd1, Oral, Feed, dose end: 78 week, group: systemic.
The subject of data set [4] is dog. The conditions noted are these: Chronic toxicity; beagle; Oral; Capsule; dose end: 52 week; group: systemic; systemic / in life observation / clinical signs / excitation + systemic / in life observation / clinical signs / hypersensitivity + systemic….
Data set [5] has as its system mouse. The conditions noted are these: Subchronic oral toxicity in rodents, other, Feed, dose end: 90 day, group: systemic, systemic / in life observation / clinical signs / aggressive behavior + systemic / in life observation / clinical signs / irritability + ….
In data set [6] the test system is dog. The following applies: Subchronic oral toxicity in nonrodent, beagle, Capsule, dose end: 13 week, group: systemic.
In data set [7] the test system is mouse. The following applies: Subchronic oral toxicity in rodents, cd1, Feed, dose end: 13 week, group: systemic.
Data set [8] deals with rat. The following applies: Prenatal developmental toxicity study, sprague dawley, Oral, Gavage/Intubation, dose end: 15 GD.
For data set [9], the system named is rat. The following applies: Combined chronic toxicity/carcinogenicity, sprague dawley, Oral, Feed, dose end: 2 year, group: systemic.
The test system of data set [10] is rat. The following applies: Prenatal developmental toxicity study; sprague dawley; Oral; Gavage/Intubation; dose end: 20 GD; group: maternal; systemic / in life observation / body weight / body weight gain.
In data set [11] the test system is rat. The conditions noted are these: Chronic toxicity, sprague dawley, Oral, Gavage/Intubation, dose end: 53 week, group: systemic.
Data set [12] deals with rat. The following applies: Multigenerational reproductive toxicity study, sprague dawley, Oral, Feed, dose end: 2 generation.
Data set [13] has as its system rat. The following applies: Subchronic oral toxicity in rodents, sprague dawley, Feed, dose end: 13 week, group: systemic. The source holds these as a separate data set.
In data set [14] the test system is mouse. The following applies: Subchronic oral toxicity in rodents, cd1, Feed, dose end: 90 day, group: systemic.
Data set [15] relates to dog. The following applies: Chronic toxicity; beagle; Oral; Feed; dose end: 52 week; group: systemic; systemic / clinical chemistry / bilirubin / total bilirubin + systemic / hematology / erythrocyte (rbc) count differential / erythrocyte (….
Data set [16] relates to mouse. The conditions noted are these: Carcinogenicity, cd1, Oral, Feed, dose end: 18 month, group: systemic.
Data set [17] deals with rat. The conditions noted are these: Combined chronic toxicity/carcinogenicity, sprague dawley, Oral, Feed, dose end: 24 month, group: systemic.
In data set [18] the test system is dog. The following applies: Subchronic oral toxicity in nonrodent, beagle, Feed, dose end: 90 day, group: systemic.
[19] abbreviates: systemic / clinical chemistry / urea nitrogen / urea nitrogen + systemic / clinical chemistry / aspartate aminotransferase (ast/sgot) / ….
The mark [20] stands for this setting: systemic / organ weight / liver / relative to body weight + systemic / pathology microscopic / liver / vacuolization + systemic / in life ….
Setting [21] is: systemic / in life observation / body weight / body weight gain + systemic / in life observation / clinical signs / anorexia.
The mark [22] stands for this setting: systemic / in life observation / body weight / body weight gain + systemic / in life observation / clinical signs / anorexia + systemic / in….
Setting [23] is: systemic / in life observation / body weight / body weight gain.
Setting [24] is: systemic / pathology microscopic / liver / hypertrophy + systemic / pathology microscopic / liver / vacuolization cytoplasmic.
Setting [25] is: group: developmental, developmental / developmental malformation / bone / incomplete ossification + systemic / in life observation / body weight / fetal weight.
[26] abbreviates: group: maternal, systemic / in life observation / body weight / body weight gain + systemic / in life observation / food consumption / food consumption + ….
The mark [27] stands for this setting: systemic / clinical chemistry / albumin / albumin + systemic / clinical chemistry / albumin-globulin ratio / albumin-globulin ratio + ….
[28] abbreviates: systemic / organ weight / brain / relative to body weight + systemic / organ weight / spleen / absolute + systemic / organ weight / thyroid ….
[29] abbreviates: systemic / clinical chemistry / alkaline phosphatase (alp/alk) / alkaline phosphatase (alp/alk) + systemic / clinical chemistry / aspartate ….
[30] abbreviates: systemic / hematology / monocytes / monocytes + systemic / in life observation / clinical signs / salivation.
[31] abbreviates: group: offspring, developmental / offspring survival late / viability index / viability index.
Where [32] appears, read: group: parental, systemic / pathology microscopic / spleen / pigmentation.
The mark [33] stands for this setting: group: parental, systemic / pathology microscopic / spleen / pigmentation + systemic / in life observation / body weight / body weight + systemic / in life ….
The mark [34] stands for this setting: group: reproductive, reproductive / offspring survival early / birth index / live birth index.
[35] abbreviates: systemic / hematology / erythrocyte (rbc) count differential / erythrocyte (rbc) + systemic / hematology / hemoglobin (hgb) / hemoglobin (….
[36] abbreviates: systemic / in life observation / body weight / body weight gain + systemic / clinical chemistry / alkaline phosphatase (alp/alk) / alkaline ….
Where [37] appears, read: systemic / in life observation / mortality / mortality.
Where [38] appears, read: systemic / hematology / erythrocyte (rbc) count differential / erythrocyte (rbc) + systemic / hematology / hematocrit (hct) / hematocrit (….
Setting [39] is: systemic / hematology / heinz body / heinz body + systemic / hematology / hematocrit (hct) / hematocrit (hct) + systemic / hematology / ….
The mark [40] stands for this setting: systemic / urinalysis / appearance and color / appearance and color.

On to `CN=C1CN(O)C(c2ccccc2)=c2cc(Cl)ccc2=N1` [Chlordiazepoxide], for which, in the data set with rat [1], the LEL amounted to 1 mg/kg/day, the LOAEL is more than 1 mg/kg/day, the NEL was less than 1 mg/kg/day and the no observed adverse effect level (NOAEL) is not below 1 mg/kg/day.

As to `N#Cc1nn(-c2c(Cl)cc(C(F)(F)F)cc2Cl)c(N)c1S(=O)C(F)(F)F` (centres undefined) [Fipronil], the LOAEL with rat [2] (systemic / clinical chemistry / protein / protein) amounted to 1.93 mg/kg/day; in the data set on mouse [3] (setting [20]), 1.18 mg/kg/day; with dog [4], 2 mg/kg/day; in the data set with mouse [5], 0.32 mg/kg/day; in the data set with dog [6] (setting [21]), 2 mg/kg/day; with mouse [7] (setting [23]) it was 3.2 mg/kg/day. In addition, the LOAEL in the data set with rat [8] (group: developmental, developmental / developmental malformation / bone / incomplete ossification) came to 2.5 mg/kg/day; with rat [8] (setting [26]) it was 2.5 mg/kg/day; in the data set on rat [9] (setting [27]), 0.059 mg/kg/day. Also, the NOAEL with rat [2] (systemic / clinical chemistry / protein / protein + systemic / clinical chemistry / albumin-globulin ratio / albumin-globulin ratio + …) is 0.33 mg/kg/day; in the data set with mouse [3] (setting [20]), 0.055 mg/kg/day; in the data set with dog [4], 0.2 mg/kg/day; in the data set with mouse [5] it was 0.08 mg/kg/day; in the data set with dog [6] (setting [22]) it was 0.5 mg/kg/day; in the data set with mouse [7] (systemic / in life observation / body weight / body weight gain + systemic / organ weight / liver / absolute + systemic / organ weight / …), 1.27 mg/kg/day. The NOAEL in the data set on rat [8] (setting [25]) is 1 mg/kg/day; with rat [8] (setting [26]), 1 mg/kg/day; in the data set with rat [9] (setting [27]) it was 0.019 mg/kg/day. For the same molecule, the LEL was 0.07 mg/kg/day in the data set on rat [2] (setting [19]); 0.055 mg/kg/day in the data set with mouse [3] (systemic / organ weight / liver / relative to body weight); 2 mg/kg/day with dog [4]; 0.32 mg/kg/day in the data set on mouse [5]; 2 mg/kg/day in the data set with dog [6] (setting [21]); 0.13 mg/kg/day in the data set on mouse [7] (setting [24]). The figures for the LEL in the data set on rat [8] (setting [25]), in the data set on rat [8] (setting [26]) and in the data set with rat [9] (setting [28]) were 2.5 mg/kg/day, 2.5 mg/kg/day and 0.019 mg/kg/day, respectively. In addition, the NEL was less than 0.07 mg/kg/day in the data set on rat [2] (setting [19]); 0.011 mg/kg/day with mouse [3] (setting [20]); 0.2 mg/kg/day in the data set with dog [4]; 0.08 mg/kg/day in the data set with mouse [5]; 0.5 mg/kg/day in the data set on dog [6] (setting [22]); less than 0.13 mg/kg/day in the data set with mouse [7] (setting [24]). Further, the NEL in the data set with rat [8] (setting [25]) is 1 mg/kg/day; with rat [8] (setting [26]) it was 1 mg/kg/day; in the data set on rat [9] (setting [28]) it was less than 0.019 mg/kg/day.

Turning to `CO[C@@H]1COCC[C@@H]1[NH2+][C@@H]1CC[C@@](C(=O)N2CCc3ncc(C(F)(F)F)cc3C2)(C(C)C)C1.O=C([O-])CCC(=O)O` [MK-812], in the data set with rat [10], the LEL was determined as 30 mg/kg/day, the LOAEL was more than 30 mg/kg/day, the NEL is 10 mg/kg/day and the NOAEL is not below 30 mg/kg/day. Further, in the data set with rat [11] (setting [29]), the LOAEL is more than 80 mg/kg/day and the NOAEL was not below 80 mg/kg/day. Further, in the data set on rat [11] (setting [30]), the LEL was 5 mg/kg/day and the NEL was less than 5 mg/kg/day.

Turning to `CCc1ccc(C(=O)NN(C(=O)c2cc(C)cc(C)c2)C(C)(C)C)cc1` [Tebufenozide], the LEL amounted to 155 mg/kg/day in the data set with rat [12] (setting [31]); 11.5 mg/kg/day in the data set with rat [12] (setting [32]); 155 mg/kg/day in the data set with rat [12] (setting [34]); 13.1 mg/kg/day with rat [13] (systemic / organ weight / testes / relative to body weight); 35.3 mg/kg/day in the data set with mouse [14] (setting [23]); 7 mg/kg/day with dog [15]. Besides, the LEL with mouse [16] (setting [37]) worked out at 0.8 mg/kg/day; in the data set on rat [17] (systemic / pathology gross / ovary / cyst), 6 mg/kg/day; in the data set on dog [18] (setting [40]) it was 2.1 mg/kg/day. In addition, the LOAEL in the data set on rat [12] (setting [31]) was more than 155 mg/kg/day; with rat [12] (setting [32]), 11.5 mg/kg/day; in the data set on rat [12] (setting [34]), 155 mg/kg/day; in the data set on rat [13] (setting [35]), 133 mg/kg/day; in the data set on mouse [14] (setting [23]), 35.3 mg/kg/day; with dog [15] it was 7 mg/kg/day. Further, the LOAEL in the data set with mouse [16] (systemic / in life observation / mortality / mortality + systemic / pathology microscopic / spleen / pigmentation + systemic / organ weight…) was found to be 78 mg/kg/day; in the data set on rat [17] (setting [38]), 48 mg/kg/day; in the data set with dog [18] (setting [39]), 20.1 mg/kg/day. For the same molecule, the NEL in the data set with rat [12] (setting [31]) was 11.5 mg/kg/day; in the data set on rat [12] (setting [33]) it was 0.8 mg/kg/day; in the data set with rat [12] (setting [34]), 11.5 mg/kg/day; in the data set with rat [13] (setting [35]), 1.3 mg/kg/day; with mouse [14] (setting [36]), 3.4 mg/kg/day; in the data set on dog [15], 1.6 mg/kg/day. The results for the NEL in the data set on mouse [16] (setting [37]), with rat [17] (systemic / pathology gross / ovary / cyst + systemic / organ weight / adrenal gland / relative to body weight + systemic / organ weight / …) and with dog [18] (setting [40]) were less than 0.8 mg/kg/day, 0.6 mg/kg/day and less than 2.1 mg/kg/day, respectively. Besides, the NOAEL in the data set with rat [12] (setting [31]) is not below 155 mg/kg/day; in the data set with rat [12] (setting [33]) it was 0.8 mg/kg/day; in the data set on rat [12] (setting [34]), 11.5 mg/kg/day; in the data set with rat [13] (setting [35]), 13.1 mg/kg/day; in the data set with mouse [14] (setting [36]), 3.4 mg/kg/day; in the data set with dog [15], 1.6 mg/kg/day. For the same molecule, the no-observed-adverse-effect level (NOAEL) turned out to be 7.8 mg/kg/day with mouse [16] (systemic / pathology microscopic / spleen / pigmentation + systemic / organ weight / spleen / absolute), 5 mg/kg/day in the data set with rat [17] (setting [38]) and 2.1 mg/kg/day in the data set on dog [18] (setting [39]).
